“Also recorded” adds a separate entry of the source.

Series [1] deals with B-fibers of rabbit vagus nerve. In words: Sucrose-gap recording in the veratrinized region, B-fibers. Also on record: species or system New Zealand white rabbit. The settings on record: 0.5 μm VTD. On the procedure:
(§1) Adult male New Zealand white rabbits (3±0.5 kg) were pretreated intramuscularly with a mixture of ketamine (200 mg), xylazine (20 mg) and atropine (0.4 mg) for sedation. Ten minutes after this treatment, the animals were anesthetized with diethyl ether. After cessation of respiration, a longitudinal skin incision was made, and the cervical portion of both vagus nerves was dissected. The vagus nerves were temporarily stored at room temperature (22° C.) in a beaker containing modified HEPES Liley (HL) solution stirred constantly by aeration with a mixture of 95% oxygen and 5% carbon dioxide. […]
(§2) VTD free base (no. V-5754, lot 58F-7828, Sigma, St. Louis, Mo.) was stored in a desiccator below 0° C. and was used to prepare a 2 mM stock solution in dimethyl sulfoxide [DMSO], Fisher Scientific, lot 861316), which also was stored at below 0° C. […] The maximum equivalent content of DMSO is 0.5%, and in three control experiments we detected no change in electrophysiologic behavior with 1% DMSO.
(§3) Nerves were desheathed and mounted in an acrylic sucrose-gap chamber (FIG. 2C). […] In contrast to the extracellular chamber described above, which measured APc in a drug-free segment after they had propagated through a VTD solution, the sucrose gap measured the behavior of the nerve membrane directly exposed to drug, the "veratrinized" nerve. […]

The subject of series [2] is A-fibers of rabbit vagus nerve. Put plainly: Sucrose-gap recording in the veratrinized region, A-fibers. Set-up: species or system New Zealand white rabbit. Here is the method:
as §1, §2, §3

The conditions of series [3]: aqueous slat solutions; limited to approximately; cited from earlier work.
Series [4] is described as follows: Toxic signs (salivation) in rats after sciatic nerve injection. Particulars: for fraction salivating: 0.1 ml. Format: in vivo, Male Sprague-Dawley rats. On the procedure:
Male Sprague-Dawley rats (200-250 g) were divided into 4 groups of 10 each. 0.1 ml of VTD alone at 0.2, 0.5 or 0.7 mM or vehicle (saline) was injected at the depression between the femoral head and the hip. The same animals were injected with VTD with epinephrine (EPI, 1:200,000) one week later, using the previously uninjected leg. Motor and sensory functions were rated by the respective monitoring of toe curling and/or foot dragging, and by testing the nocifensive withdrawal reflex to pinch of the foot pad of the injected hindlimb. Saline alone affected neither function.

Series [5] deals with C-fibers of rabbit vagus nerve. Put plainly: Sucrose-gap recording in the veratrinized region, C-fibers. Also on record: species or system New Zealand white rabbit. On the procedure: Adult male New Zealand white rabbits (3±0.5 kg) were pretreated intramuscularly with a mixture of ketamine (200 mg), xylazine (20 mg) and atropine (0.4 mg) for sedation. Ten minutes after this treatment, the animals were anesthetized with diethyl ether. After cessation of respiration, a longitudinal skin incision was made, and the cervical portion of both vagus nerves was dissected. The vagus nerves were temporarily stored at room temperature (22° C.) in a beaker containing modified HEPES Liley (HL) solution stirred constantly by aeration with a mixture of 95% oxygen and 5% carbon dioxide.
The modified HL solution used for bathing the nerve and subsequent drug perfusion consisted of (in mM): NaCl, 118.0; KCl, 5.0; CaCl2 2H2 0, 2.0; MgCl2 6H2 0, 1.0; α-D(+)-glucose, 11.0; NaHC03, 25.0; and N-2-hydroxy-ethylpiperazine-N-2-ethanesulfonic acid (HEPES) buffer, 5.0 mM. The pH was adjusted to 7.4±0.05 by addition of 1 N NaOH. The perfusion solution was bubbled with a gas mixture of 95% oxygen and 5% carbon dioxide at a vigorous rate just before flowing onto the nerve. The pH was stabilized by the HEPES buffer and maintained at 7.4.
VTD free base (no. V-5754, lot 58F-7828, Sigma, St. Louis, Mo.) was stored in a desiccator below 0° C. and was used to prepare a 2 mM stock solution in dimethyl sulfoxide [DMSO], Fisher Scientific, lot 861316), which also was stored at below 0° C. VTD, a steroidal alkaloid (FIG. 2A) that is produced by certain lilies, has a solubility limited to approximately 10^-3 M in aqueous slat solutions [Kupchan and By, "The Veratrum Group," in Alkaloids, Vol. 10, Manske, R.H.F. (ed.), New York, Academic Press (1968), pp. 193-285]. The stock VTD solution was diluted to final concentrations of 0.2-10 μM by the addition of HL. The maximum equivalent content of DMSO is 0.5%, and in three control experiments we detected no change in electrophysiologic behavior with 1% DMSO.
Nerves were desheathed and mounted in an acrylic sucrose-gap chamber (FIG. 2C). We used a method after that described by Stampfli [Stampfli, R., Experientia 10:508-509 (1954); see also Rando et al., Mol. Pharmacol. 29:467-477 (1986)]. […] In contrast to the extracellular chamber described above, which measured APc in a drug-free segment after they had propagated through a VTD solution, the sucrose gap measured the behavior of the nerve membrane directly exposed to drug, the "veratrinized" nerve.
APc and the CRP were recorded with the same amplifier used for extracellular recording (see above), but passed both to the DC-coupled input of the storage oscilloscope (for APc) and to a strip-chart recorder (for CRP) (model 8376-20, Cole-Palmer). […]

Take `COc1ccc(C(=O)OC2CCC3(C)C4CCC5C6(O)CC(O)C7(O)C(CN8CC(C)CCC8C7(C)O)C6(O)CC53OC24O)cc1OC` (stereo not drawn) [VTD, veratridine]: the “B-fiber elevation after addition of VTD” value in series [1] is “unchanged”. Besides, the “A-fiber deflection between beginning and end of the train” value in series [2] (0.2 μM VTD, 0.5 Hz stimulation) was “unchanged”. The “A-fiber elevation after addition of VTD” value in series [2] (0.5 μm VTD) is recorded as “unchanged”. The Solubility entry in series [3] is “approximately 10^-3 M”. The “Toxic signs, including profuse salivation” value in series [4] (0.5 and 0.7 mM VTD alone) was 14/20. The values for the fraction salivating in series [4] ([VTD] 0.2 mM), in series [4] ([VTD] 0.5 mM) and in series [4] ([VTD] 0.7 mM) were 0/10, 4/10 and 10/10, respectively. In addition, in series [5] (0.5 μm VTD, single stimulus), the “C-fiber elevation after addition of VTD” value is “unaffected”. Besides, the “Time for development of VTD-induced depolarization (VID) after stimulation” value in series [5] (0.5 μm VTD, within about 100 ms) was no more than 100 ms. Also, the “Decay halftime of VTD-induced depolarization (VID)” value in series [5] (after 1 hr in 2.0 μm VTD) was in the range of 3 to 4 s. For the same molecule, the “Primary C-fiber elevations during cumulative VID” value in series [5] (repetitive stimulation) is “much smaller than were the elevations induced by single stimuli; also recorded: selectively reduced”.
